{"source": "patent US8551721B2", "about": "“Bioluminescent detection of cyanohydroxy benzothiazole compounds” (Promega Corporation, priority 2008, dated 2013)", "format_in_all_cases": "biochemical", "key": {"[1]": {"tested_on": "endogenously expressed UGT isozymes in mammalian microsomes", "assay": "Utilization of compounds by mammalian microsomes", "settings": "15 minutes at 37° C., 0.1 mg/mL mammalian microsomes or 0.2 mg/mL Supersomes, 50 μM compound", "protocol": "The invention includes a method of determining activity of the uridine 5′-diphospho-glucuronosyltransferase (UDP-glucuronosyltransferase, or UGT) family enzymes in vitro. […] Following the UGT enzyme reaction, an equal volume of P450-Glo Luciferin Detection Reagent (Promega) containing 15-30 mM D-cysteine-HCl.H2O (Sigma) was added and the plate was mixed and incubated at room temperature, typically for 20-30 minutes. P450-Glo Luciferin Detection Reagent can be prepared by dissolving a vial of Promega Luciferin Detection Reagent (Promega Part #V859B) with a vial of Promega P450-Glo Buffer (Promega Part #V865B).\nDuring this incubation, the cysteine reacts with the cyanobenzathiozole substrate to yield a D-luciferin derivative. […] Therefore, activity of the UGT enzyme can be measured by analyzing the difference (lower or no output) in relative light units (RLU) of a sample in which glucuronidation occurs compared to a sample that was run under the same conditions with no added UDPGA cofactor.\nTissue microsomes were obtained from Xenotech LLC or BD Gentest."}, "UGT 1A1": {"target": "T1, UGT 1A1 (Homo sapiens, UniProt P22309)", "T1 construct": "purchased BD Gentest; host or cells: insect cells (microsomes)", "T1 sequence (P22309 26-533)": "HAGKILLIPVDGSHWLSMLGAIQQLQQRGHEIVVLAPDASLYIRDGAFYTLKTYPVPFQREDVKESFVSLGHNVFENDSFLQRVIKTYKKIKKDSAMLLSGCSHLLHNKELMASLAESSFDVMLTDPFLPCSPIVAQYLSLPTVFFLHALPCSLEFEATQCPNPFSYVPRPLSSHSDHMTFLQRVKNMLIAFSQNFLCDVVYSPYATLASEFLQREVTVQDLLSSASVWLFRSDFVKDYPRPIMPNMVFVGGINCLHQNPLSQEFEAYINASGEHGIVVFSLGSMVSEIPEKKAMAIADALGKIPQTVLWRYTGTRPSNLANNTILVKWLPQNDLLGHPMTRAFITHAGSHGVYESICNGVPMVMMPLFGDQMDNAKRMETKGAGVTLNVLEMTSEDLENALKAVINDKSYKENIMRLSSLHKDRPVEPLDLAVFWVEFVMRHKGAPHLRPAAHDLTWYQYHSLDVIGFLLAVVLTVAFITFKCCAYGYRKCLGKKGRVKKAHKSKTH", "assay": "Assay variability (Z') with UGT 1A1 Supersomes and compound 3138", "settings": "0.2 mg/mL Supersomes, 30 μM compound 3138, plus or minus 5 mM UDPGA, 12 samples each, 120 mM at 37° C.", "protocol": "(§1) Assay variability was determined using the activity data and standard deviations of 12 separate minus UDPGA and plus UDPGA samples. All reactions contained 50 mM TES, pH 7.5, 8 mM MgCl2, 25 μg/mL alamethicin, 0.2 mg/mL UGT 1A1 or 2B7 Supersomes™, and 30 μM compound 3138, plus or minus 5 mM UDPGA. After […] at 37° C., 40 μl, of LDR plus 20 mM D-cysteine was added to each 40 μl, reaction and mixed. After 20 minutes at room temperature, RLU were read on a luminometer.\n(§2) Z′ values were calculated using the equation outlined below.\n(§3) Robust assay systems typically display Z′ values of 0.5 or higher. The calculated Z′ value for UGT 1A1 was 0.83. The calculated Z′ value for UGT 2B7 under the same conditions was 0.67."}, "UGT 2B7": {"target": "T2, UGT 2B7 (Homo sapiens, UniProt P16662)", "T2 construct": "purchased BD Gentest; host or cells: insect cells (microsomes)", "T2 sequence (P16662 24-529)": "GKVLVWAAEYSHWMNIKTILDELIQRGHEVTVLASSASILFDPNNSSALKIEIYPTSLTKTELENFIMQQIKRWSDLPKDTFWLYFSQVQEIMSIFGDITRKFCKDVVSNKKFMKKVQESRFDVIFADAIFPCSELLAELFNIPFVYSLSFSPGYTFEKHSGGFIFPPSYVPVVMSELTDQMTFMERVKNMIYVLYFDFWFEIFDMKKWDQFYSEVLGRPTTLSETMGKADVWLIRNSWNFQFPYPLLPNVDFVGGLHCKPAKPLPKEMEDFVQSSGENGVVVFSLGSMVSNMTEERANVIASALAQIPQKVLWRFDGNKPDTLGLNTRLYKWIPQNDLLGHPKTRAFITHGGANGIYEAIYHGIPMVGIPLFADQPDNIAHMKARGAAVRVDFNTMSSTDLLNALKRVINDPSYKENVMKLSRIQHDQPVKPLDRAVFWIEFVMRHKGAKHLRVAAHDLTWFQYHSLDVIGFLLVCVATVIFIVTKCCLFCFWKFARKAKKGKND", "assay": "Assay variability (Z') with UGT 2B7 Supersomes and compound 3138", "settings": "0.2 mg/mL Supersomes, 30 μM compound 3138, plus or minus 5 mM UDPGA, 12 samples each, 120 mM at 37° C.", "protocol": "as §1, §2, §3"}}}
{"smiles": "Cc1cc(O)cc2sc(C#N)nc12", "note": "[compound 3138]", "values": [{"measurement": "utilization of compound 3138 by tissue microsomes compared with control 1A1 Supersomes", "setting": "[1]", "result": "All tissues tested utilized much more compound 3138 than the control 1A1 Supersomes"}, {"measurement": "calculated Z′ value for UGT 1A1", "setting": "UGT 1A1", "result": 0.83}, {"measurement": "calculated Z′ value for UGT 2B7", "setting": "UGT 2B7", "result": 0.67}]}
